The source of these data is article PMC4198181, “Gold(I) Complexes of 9-Deazahypoxanthine as Selective Antitumor and Anti-Inflammatory Agents” (PLoS ONE, 2014).

Molecules are shown by their SMILES. Where only a bound is given, the exact number is not on record here.

The test system of series [1] is 22Rv1 prostate carcinoma cells. The experiment in a line: MTT in vitro cytotoxicity, 22Rv1. It is filed as cell-based, human. The settings on record: 24 h treatment, read-out: IC50±S.E., 22Rv1. As for the experimental part: In vitro cytotoxic activity was determined by the MTT assay in human breast adenocarcinoma (MCF7; ECACC no. 86012803), human osteosarcoma (HOS; ECACC no. 87070202), lung carcinoma (A549; ECACC no. 86012804), malignant melanoma (G361; ECACC no. 88030401), cervix epitheloid carcinoma (HeLa; ECACC no. 93021013), ovarian carcinoma (A2780; ECACC no. 93112519), cisplatin-resistant ovarian carcinoma (A2780R; […] ECACC no 105092802) cancer cell lines, purchased from European Collection of Cell Cultures (ECACC). […] The primary culture of human hepatocytes (HEP220, batch number HEP220819) was obtained from Biopredic International (France). The culture medium was Williams and HAM's F-12 (1∶1) supplemented with penicillin, streptomycin, ascorbic acid, linoleic acid, holo-transferin, ethanolamine, glucagon, insulin, dexamethasone, pyruvate, glucose, glutamine, amphotericin. The medium was enriched for plating with 2% foetal calf serum (v/v). The medium was exchanged for a serum-free medium the day after and the culture was stabilized for additional 24 h. Thereafter, the cells were ready for treatments. […] The MTT assay was performed spectrophotometrically at 540 nm (TECAN, Schoeller Instruments LLC). The cytotoxicity data were expressed as the percentage of viability, where 100% represented the treatments with vehicle (0.1% DMF or 0.1% DMSO). The cytotoxicity data from the cancer cell lines were acquired from three independent experiments (conducted in triplicate) using cells from different passages. The IC50 values were calculated from viability curves. The results are presented as arithmetic means±standard error of the mean (S.E.).

Series [2] relates to THP-1 monocytic leukaemia cells. The experiment in a line: WST-1 in vitro cytotoxicity, THP-1. The series is classed as cell-based, human. The settings on record: 24 h treatment, WST-1, 0.16–10.00 µM; read-out: IC50±S.E., THP-1. As for the experimental part: Before the in vitro anti-inflammatory testing, in vitro cytotoxicity on human monocytic leukaemia cells (THP-1, ECACC no. 88081201) was determined using the WST-1 assay. The THP-1 cells (floating monocytes, 500 000 cells/mL) were incubated in 100 µL of the serum-free RPMI 1640 medium and seeded into 96-well plates in triplicate at 37°C. Measurements were taken 24 h after the treatment with the tested compounds dissolved in 0.1% DMSO in the concentration range of 0.16–10.00 µM. Viability was determined by the WST-1 test according to the manufacturer's manual. The amount of the formed formazan (which correlates to the number of metabolically active cells in the culture) was calculated as a percentage of the control cells, which were treated only with 0.1% DMSO and was set-up as 100%. The IC50 values of the tested compounds were calculated from the obtained data. The WST-1 assay was performed spectrophotometrically at 440 nm (FLUOstar Omega, BMG Labtech).
The cytotoxicity data were expressed as the percentage of viability, where 100% represented the treatments with vehicle (0.1% DMF or 0.1% DMSO). The cytotoxicity data from the cancer cell lines were acquired from three independent experiments (conducted in triplicate) using cells from different passages. The IC50 values were calculated from viability curves. The results are presented as arithmetic means±standard error of the mean (S.E.). The significance of the differences between the results was assessed by the ANOVA analysis with p<0.05 considered to be significant (QC Expert 3.2, Statistical software, TriloByte Ltd., Pardubice, Czech Republic).
On the technique in general: Formazan colour is commonly taken as a measure of viable cells.

Series [3] has as its system polymorphonuclear cells infiltration in hind paw tissue. The series can be described thus: Ex vivo histological evaluation of hind paw tissue (HE staining, PMN infiltration). It is filed as in vivo, Wistar-SPF rats. The note with it: 6 h after carrageenan, Indomethacin 5 mg/kg. As for the experimental part: The carrageenan-induced hind paw edema model was used for the determination of anti-inflammatory activity. Animals were i.p. pretreated with complexes 2, 4, and 5 (the dosages of the individual complexes were adjusted to contain the same amount of gold as in 10 mg/kg dose of Auranofin), Indomethacin (5 mg/kg), or 25% DMSO (v/v in water) 30 min prior to the injection of 1% λ-carrageenan solution (50 µL) into the plantar side of right hind paws of the rats. The paw volume was measured immediately after the carrageenan injection (this value was set-up as baseline value for the hind paw volume) and during the next 6 h after the administration of the edematogenic agent using a plethysmometer (model 7159, Ugo Basile, Varese, Italy). The degree of swelling was evaluated as a percentage of the change of the volume of the right hind paw after the carrageenan treatment from the baseline volume. A non-steroidal anti-inflammatory drug Indomethacin was used as a positive control and the obtained data were also compared with the previously reported profile of antiedematous activity for Auranofin [38]. After 6 h, the animals were sacrificed and the edematous feet were dissected, the tissue from the plantar parts was extracted, fixed and stained by a standard hematoxylin/eosin (HE) staining for cytological evaluation of polymorphonuclear cells infiltration.
To assess the tissue consequences connected with the reduction of inflammation caused by the tested compounds after the intraplantar injection of carrageenan, the histopathological observations were made on the tissue sections obtained from the laboratory animals after the plethysmometric experiments were finished. All animals were sacrificed by cervical dislocation, and immediately after that, the tissue samples were taken from the plantar area of hind paws. The histopathological changes in tissues, stained by the standard HE staining (see Figure 10), were evaluated by the presence of the inflammation infiltrate, which contained mainly neutrophils (polymorphonuclear cells - PMN).

Series [4] in a line: Interactions with L-cysteine and reduced glutathione by ESI+ MS. The note with it: 20 µM complex, 290 µM cysteine, 6 µM glutathione, methanol/water 1:1. The series is classed as physicochemical. As for the experimental part: The interactions of selected gold(I) complexes 2 and 4, involving the isopropyloxy and benzyloxy substituent on C6 of 9-deazapurine, with the sulfur-containing biomolecules (i.e. L-cysteine and reduced glutathione) were studied by ESI+ mass spectrometry (ESI+ MS). The experiments were carried out using a Thermo Scientific LTQ Fleet Ion-Trap mass spectrometer, in positive ionization mode. The reactions of the representative complexes 2 and 4 were performed in methanol/water mixture (1∶1, v/v) containing the physiological concentrations of L-cysteine and glutathione (at the final concentrations of 290 µM, and 6 µM [63], respectively). The reference system consisted of the solutions of complexes (20 µM) in methanol/water mixture (1∶1, v/v). The flow injection analysis (FIA) method was utilized to introduce the reaction system (5 µL spikes) into the mass spectrometer and pure acetonitrile was used as a mobile phase. The ESI-source was set-up as follows: source voltage (5 kV), the vaporizer temperature (160°C), the capillary temperature (250°C), the sheath gas flow (30 L/min), and auxiliary gas flow rate (10 L/min). The system was calibrated as stated in the manufactured specifications and no further tuning was needed.

As for `CC(C)Oc1ncnc2cc[n]([Au])c12.c1ccc(P(c2ccccc2)c2ccccc2)cc1` [complex 2, [Au(L2)(PPh3)]], the IC50 (as a rule, the concentration that inhibits the measured activity by half) in series [1] came to 4 ± 0.1 µM; in series [2], 800 ± 100 nM. Moreover, the “PMN (neutrophil) infiltrate in hind paw tissue sections” value in series [3] was “mainly scarce and diffuse”. Further, in series [4], the “time within which interaction intermediates with cysteine/glutathione were detected (N-ligand exchange)” value was no more than 1 h.

As to `[Au][n]1ccc2ncnc(OCCc3ccccc3)c21.c1ccc(P(c2ccccc2)c2ccccc2)cc1` [complex 5], the IC50 in series [1] amounted to 3.7 ± 0.1 µM; in series [2], 1400 ± 100 nM. Moreover, in series [3], the “PMN (neutrophil) infiltrate in hind paw tissue sections” value is recorded as “massive presence of PMN cells”.
